Assay results taken from ChEMBL document CHEMBL5244255, “An insight on medicinal attributes of 1,2,4-triazoles” (Eur J Med Chem, 2020).
Converted amounts (≈) assume the structure as drawn.

What was measured:
[1] = system: Mycobacterium tuberculosis; experiment: Antimycobacterial activity against multi drug resistant Mycobacterium tuberculosis measured after 8 to 9 days; format: functional; details: time 8-9 day
[2] = system: Mycobacterium tuberculosis; experiment: Antimycobacterial activity against drug resistant Mycobacterium tuberculosis measured after 8 to 9 days; format: functional; details: time 8-9 day

Row | Compound | MIC [1] [mg/L] | MIC [2] [mg/L]
1 | Clc1ccc(-c2nnc3sc(COc4ccc(Br)cc4)nn23)cc1 | 4 (≈ 9.49 µM) | 0.5 (≈ 1.19 µM)
2 | Brc1ccc(OCc2nn3c(-c4ccc(Br)cc4)nnc3s2)cc1 | 4 (≈ 8.58 µM) | 0.5 (≈ 1.07 µM)
3 | O=[N+]([O-])c1ccc(C2=Nn3c(nnc3-c3ccc(Br)cc3)CC2)cc1 |  | 0.25 (≈ 0.628 µM)
4 | O=[N+]([O-])c1ccc(C2=Nn3c(nnc3-c3ccnc(F)c3)CC2)cc1 | 0.25 (≈ 0.739 µM) | 0.25 (≈ 0.739 µM)
5 | O=[N+]([O-])c1ncn(CCCCNS(=O)(=O)c2scc(Cl)c2Cl)n1 | 0.25 (≈ 0.625 µM) | 
